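Each compound was tested at five concentrations against cells in 96-well plates for 48 hours. At the GI50, growth is halved.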 Calls of active or inactive are those of the source. Rule as the data show it: active = GI50 up to about 1.1 µM and inactive = higher.
Tests used:
Assay in all cases: NCI tumour cell line growth inhibition, 48 h
UACC-257 = tested on: UACC-257
TK-10 = tested on: TK-10
DMS-273 = tested on: DMS-273
SK-MEL-28 = tested on: SK-MEL-28
IGROV-1 = tested on: IGROV-1
NCI-H226 = tested on: NCI-H226
CCRF-CEM = tested on: CCRF-CEM
NCI-H460 = tested on: NCI-H460
Malme-3M = tested on: Malme-3M
SNB-19 = tested on: SNB-19
SR = tested on: SR
EKVX = tested on: EKVX
RPMI-8226 = tested on: RPMI-8226
M14 = tested on: M14
RXF 631 = tested on: RXF 631
SF-295 = tested on: SF-295
SW-620 = tested on: SW-620
SK-MEL-5 = tested on: SK-MEL-5
U-251 = tested on: U-251
ACHN = tested on: ACHN
RXF 393 = tested on: RXF 393
MOLT-4 = tested on: MOLT-4
M19-MEL = tested on: M19-MEL
SF-539 = tested on: SF-539
LOX IMVI = tested on: LOX IMVI
CAKI-1 = tested on: CAKI-1
UO-31 = tested on: UO-31
HCC 2998 = tested on: HCC 2998
HCT-15 = tested on: HCT-15
HL-60 = tested on: HL-60
NCI-H23 = tested on: NCI-H23
LXFL 529 = tested on: LXFL 529
DLD-1 = tested on: DLD-1
HCT-116 = tested on: HCT-116
KM12 = tested on: KM12
OVCAR-8 = tested on: OVCAR-8
SK-OV-3 = tested on: SK-OV-3
OVCAR-4 = tested on: OVCAR-4
SN12C = tested on: SN12C
A549 = tested on: A549
SF-268 = tested on: SF-268
SK-MEL-2 = tested on: SK-MEL-2
XF498 = tested on: XF498
SNB-75 = tested on: SNB-75
K562 = tested on: K562
SNB-78 = tested on: SNB-78
HOP-18 = tested on: HOP-18
HOP-62 = tested on: HOP-62
COLO 205 = tested on: COLO 205
OVCAR-5 = tested on: OVCAR-5
KM-20L2 = tested on: KM-20L2
A498 = tested on: A498
OVCAR-3 = tested on: OVCAR-3
DMS-114 = tested on: DMS-114
786-0 = tested on: 786-0
UACC-62 = tested on: UACC-62
NCI-H522 = tested on: NCI-H522
HT-29 = tested on: HT-29
HOP-92 = tested on: HOP-92

N=C(N)c1csc([C@@H]2O[C@H](CO)[C@@H](O)[C@H]2O)n1
GI50 (UACC-257): > 100 µM (inactive)
GI50 (TK-10): > 100 µM (inactive)
GI50 (DMS-273): > 100 µM (inactive)
GI50 (SK-MEL-28): > 100 µM (inactive)
GI50 (IGROV-1): > 100 µM (inactive)
GI50 (NCI-H226): 89.5 µM (inactive)
GI50 (CCRF-CEM): > 100 µM (inactive)
GI50 (NCI-H460): > 100 µM (inactive)
GI50 (Malme-3M): > 100 µM (inactive)
GI50 (SNB-19): > 100 µM (inactive)
GI50 (SR): > 100 µM (inactive)
GI50 (EKVX): > 100 µM (inactive)
GI50 (RPMI-8226): > 100 µM (inactive)
GI50 (M14): > 100 µM (inactive)
GI50 (RXF 631): > 100 µM (inactive)
GI50 (SF-295): > 100 µM (inactive)
GI50 (SW-620): > 100 µM (inactive)
GI50 (SK-MEL-5): > 100 µM (inactive)
GI50 (U-251): > 100 µM (inactive)
GI50 (ACHN): > 100 µM (inactive)
GI50 (RXF 393): > 100 µM (inactive)
GI50 (MOLT-4): > 100 µM (inactive)
GI50 (M19-MEL): > 100 µM (inactive)
GI50 (SF-539): > 100 µM (inactive)
GI50 (LOX IMVI): > 100 µM (inactive)
GI50 (CAKI-1): > 100 µM (inactive)
GI50 (UO-31): > 100 µM (inactive)
GI50 (HCC 2998): > 100 µM (inactive)
GI50 (HCT-15): > 100 µM
GI50 (HL-60): > 100 µM (inactive)
GI50 (NCI-H23): > 100 µM (inactive)
GI50 (LXFL 529): > 100 µM (inactive)
GI50 (DLD-1): > 100 µM (inactive)
GI50 (HCT-116): > 100 µM (inactive)
GI50 (KM12): > 100 µM (inactive)
GI50 (OVCAR-8): > 100 µM (inactive)
GI50 (SK-OV-3): > 100 µM (inactive)
GI50 (OVCAR-4): > 100 µM (inactive)
GI50 (SN12C): > 100 µM (inactive)
GI50 (A549): > 100 µM (inactive)
GI50 (SF-268): > 100 µM (inactive)
GI50 (SK-MEL-2): > 100 µM (inactive)
GI50 (XF498): > 100 µM (inactive)
GI50 (SNB-75): 80.9 µM (inactive)
GI50 (K562): > 100 µM (inactive)
GI50 (SNB-78): > 100 µM (inactive)
GI50 (HOP-18): 59.7 µM (inactive)

N=C(N)NS(=O)(=O)c1ccc(Nc2c3ccccc3nc3c(C(=O)Nc4ccc(S(N)(=O)=O)cc4)ccc(Cl)c23)cc1
GI50 (HOP-62): > 100 µM (inactive)
GI50 (COLO 205): > 100 µM (inactive)
GI50 (OVCAR-5): > 100 µM (inactive)
GI50 (KM-20L2): > 100 µM (inactive)
GI50 (UACC-257): > 100 µM (inactive)
GI50 (TK-10): > 100 µM (inactive)
GI50 (DMS-273): > 100 µM (inactive)
GI50 (SK-MEL-28): > 100 µM (inactive)
GI50 (IGROV-1): > 100 µM (inactive)
GI50 (A498): > 100 µM (inactive)
GI50 (NCI-H226): > 100 µM (inactive)
GI50 (NCI-H460): > 100 µM (inactive)
GI50 (Malme-3M): > 100 µM (inactive)
GI50 (SNB-19): > 100 µM (inactive)
GI50 (SR): > 100 µM (inactive)
GI50 (EKVX): > 100 µM (inactive)
GI50 (RPMI-8226): > 100 µM (inactive)
GI50 (M14): > 100 µM (inactive)
GI50 (RXF 631): > 100 µM (inactive)
GI50 (SF-295): > 100 µM (inactive)
GI50 (SW-620): > 100 µM (inactive)
GI50 (OVCAR-3): > 100 µM (inactive)
GI50 (SK-MEL-5): > 100 µM (inactive)
GI50 (DMS-114): > 100 µM (inactive)
GI50 (786-0): > 100 µM (inactive)
GI50 (U-251): > 100 µM (inactive)
GI50 (ACHN): > 100 µM (inactive)
GI50 (RXF 393): > 100 µM (inactive)
GI50 (MOLT-4): > 100 µM (inactive)
GI50 (M19-MEL): > 100 µM (inactive)
GI50 (SF-539): > 100 µM (inactive)
GI50 (LOX IMVI): > 100 µM (inactive)
GI50 (CAKI-1): > 100 µM (inactive)
GI50 (UO-31): > 100 µM (inactive)
GI50 (HCC 2998): > 100 µM (inactive)
GI50 (HCT-15): > 100 µM
GI50 (HL-60): 47.8 µM (inactive)
GI50 (NCI-H23): > 100 µM (inactive)
GI50 (LXFL 529): > 100 µM (inactive)
GI50 (UACC-62): > 100 µM (inactive)
GI50 (DLD-1): > 100 µM (inactive)
GI50 (HCT-116): > 100 µM (inactive)
GI50 (KM12): > 100 µM (inactive)
GI50 (OVCAR-8): 58.2 µM (inactive)
GI50 (NCI-H522): > 100 µM (inactive)
GI50 (SK-OV-3): > 100 µM (inactive)
GI50 (OVCAR-4): > 100 µM (inactive)
GI50 (SN12C): > 100 µM (inactive)
GI50 (A549): > 100 µM (inactive)
GI50 (SF-268): > 100 µM (inactive)
GI50 (XF498): > 100 µM (inactive)
GI50 (HT-29): > 100 µM (inactive)
GI50 (SNB-75): > 100 µM (inactive)
GI50 (K562): > 100 µM (inactive)
GI50 (HOP-92): > 100 µM (inactive)
GI50 (SNB-78): 65.5 µM (inactive)
GI50 (HOP-18): > 100 µM (inactive)
